Test results reported in ChEMBL document CHEMBL1201861, “Genomics of Drug Sensitity in Cancer screening data, Wellcome Trust Sanger Institute”.

What was measured:
Experiment in all cases: cells
SK-NEP-1 = assay type: functional, cell-based; conditions: Homo sapiens;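 note: growth inhibition of human SK-NEP-1 cells, read out by a cell viability assay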
Description: SANGER: Inhibition of human SK-NEP-1 cell growth in a cell viability assay.

KLE = assay type: functional, cell-based, Homo sapiens; conditions: Homo sapiens, KLE;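 note: growth inhibition of human KLE cells, read out with a cell viability assay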
Description: SANGER: Inhibition of human KLE cell growth in a cell viability assay.

NCI-H520 = assay type: functional, cell-based, Homo sapiens; conditions: Homo sapiens, NCI-H520;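 note: growth inhibition of NCI-H520 cells, measured by a cell viability assay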
Description: SANGER: Inhibition of human NCI-H520 cell growth in a cell viability assay.

SNU-5 = assay type: functional, cell-based; conditions: Homo sapiens;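 note: cell viability readout used to measure growth inhibition in human NCI-SNU-5 cells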
Description: SANGER: Inhibition of human NCI-SNU-5 cell growth in a cell viability assay.

EFO-27 = assay type: functional, cell-based, Homo sapiens; conditions: Homo sapiens, EFO-27;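 note: growth inhibition of EFO-27 cells, read out with a cell viability assay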
Description: SANGER: Inhibition of human EFO-27 cell growth in a cell viability assay.

HCC1569 = assay type: functional, cell-based, Homo sapiens; conditions: Homo sapiens, HCC1569;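 note: growth inhibition of human HCC1569 cells, read out with a cell viability assay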
Description: SANGER: Inhibition of human HCC1569 cell growth in a cell viability assay.

MS-1 = assay type: functional, cell-based; conditions: Homo sapiens;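 note: growth inhibition of MS-1 cells, read out by cell viability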
Description: SANGER: Inhibition of human MS-1 cell growth in a cell viability assay.

DK-MG = assay type: functional, cell-based, Homo sapiens; conditions: Homo sapiens, DK-MG;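 note: growth inhibition of DK-MG cells, read out with a cell viability assay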
Description: SANGER: Inhibition of human DK-MG cell growth in a cell viability assay.

BEN = assay type: functional, cell-based, Homo sapiens; conditions: Homo sapiens, BEN;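 note: growth inhibition of the BEN cell line, read out with a cell viability assay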
Description: SANGER: Inhibition of human BEN cell growth in a cell viability assay.

COLO-800 = assay type: functional, cell-based, Homo sapiens; conditions: Homo sapiens, COLO-800;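 note: growth inhibition of COLO-800 cells, read out with a cell viability assay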
Description: SANGER: Inhibition of human COLO-800 cell growth in a cell viability assay.

SNB-75 = assay type: functional, cell-based, Homo sapiens; conditions: Homo sapiens, SNB-75;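 note: cell viability assay measuring growth inhibition of human SNB-75 cells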
Description: SANGER: Inhibition of human SNB75 cell growth in a cell viability assay.

D-336MG = assay type: functional, cell-based, Homo sapiens; conditions: Homo sapiens, D-336MG
Description: SANGER: Inhibition of human D-336MG cell growth in a cell viability assay.

HAL-01 = assay type: functional, cell-based; conditions: Homo sapiens;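 note: growth inhibition of human HAL-01 cells, read out with a cell viability assay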
Description: SANGER: Inhibition of human HAL-01 cell growth in a cell viability assay.

ALL-PO = assay type: functional, cell-based; conditions: Homo sapiens;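 note: growth inhibition of ALL-PO cells, read out by a cell viability assay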
Description: SANGER: Inhibition of human ALL-PO cell growth in a cell viability assay.

U-266 = assay type: functional, cell-based; conditions: Homo sapiens
Description: SANGER: Inhibition of human U-266 cell growth in a cell viability assay.

KARPAS-45 = assay type: functional, cell-based; conditions: Homo sapiens;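 note: inhibition of cell line growth, read out through a viability assay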
Description: SANGER: Inhibition of human KARPAS-45 cell growth in a cell viability assay.

NCI-H596 = assay type: functional, cell-based, Homo sapiens; conditions: Homo sapiens, NCI-H596;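 note: growth inhibition of NCI-H596 cells, read out with a cell viability assay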
Description: SANGER: Inhibition of human NCI-H596 cell growth in a cell viability assay.

NCI-H2228 = assay type: functional, cell-based, Homo sapiens; conditions: Homo sapiens, NCI-H2228;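 note: growth inhibition of human NCI-H2228 cells, read out by a cell viability assay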
Description: SANGER: Inhibition of human NCI-H2228 cell growth in a cell viability assay.

RO82-W-1 = assay type: functional, cell-based, Homo sapiens; conditions: Homo sapiens, RO82-W-1;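 note: growth inhibition of human RO82-W-1 cells, measured with a cell viability assay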
Description: SANGER: Inhibition of human RO82-W-1 cell growth in a cell viability assay.

OVCAR-3 = assay type: functional, cell-based, Homo sapiens; conditions: Homo sapiens, OVCAR-3;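 note: growth inhibition of human OVCAR-3 cells, determined by a cell viability assay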
Description: SANGER: Inhibition of human OVCAR-3 cell growth in a cell viability assay.

OE33 = assay type: functional, cell-based, Homo sapiens; conditions: Homo sapiens, OE33;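 note: growth inhibition of human OE33 cells, measured by a cell viability assay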
Description: SANGER: Inhibition of human OE33 cell growth in a cell viability assay.

SN12C = assay type: functional, cell-based, Homo sapiens; conditions: Homo sapiens, SN12C;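 note: growth inhibition of human SN12C cells, measured by a cell viability assay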
Description: SANGER: Inhibition of human SN12C cell growth in a cell viability assay.

UO-31 = assay type: functional, cell-based; conditions: Homo sapiens;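 note: cell viability assay measuring inhibition of cell growth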
Description: SANGER: Inhibition of human U031 cell growth in a cell viability assay.

LB771-HNC = assay type: functional, cell-based, Homo sapiens; conditions: Homo sapiens, LB771-HNC;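 note: growth inhibition of LB771-HNC human cells, read out with a cell viability assay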
Description: SANGER: Inhibition of human LB771-HNC cell growth in a cell viability assay.

HCT-116 = assay type: functional, cell-based, Homo sapiens; conditions: Homo sapiens, HCT-116
Description: SANGER: Inhibition of human HCT-116 cell growth in a cell viability assay.

K562 = assay type: functional, cell-based; conditions: Homo sapiens
Description: SANGER: Inhibition of human K-562 cell growth in a cell viability assay.

NY = assay type: functional, cell-based, Homo sapiens; conditions: Homo sapiens, NY
Description: SANGER: Inhibition of human NY cell growth in a cell viability assay.

CAL-120 = assay type: functional, cell-based, Homo sapiens; conditions: Homo sapiens, CAL-120;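 note: cell growth inhibition, read out as cell viability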
Description: SANGER: Inhibition of human CAL-120 cell growth in a cell viability assay.

CAL-39 = assay type: functional, cell-based, Homo sapiens; conditions: Homo sapiens, CAL-39;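 note: cell viability assay measuring growth inhibition of CAL-39 cells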
Description: SANGER: Inhibition of human CAL-39 cell growth in a cell viability assay.

NTERA-2-cl-D1 = assay type: functional, cell-based, Homo sapiens; conditions: Homo sapiens, NTERA-2-cl-D1;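 note: inhibition of cell growth, measured with a cell viability assay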
Description: SANGER: Inhibition of human NTERA-S-cl-D1 cell growth in a cell viability assay.

IGR-1 = assay type: functional, cell-based, Homo sapiens; conditions: Homo sapiens, IGR-1;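 note: growth inhibition of human IGR-1 cells, read out with a cell viability assay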
Description: SANGER: Inhibition of human IGR-1 cell growth in a cell viability assay.

MN-60 = assay type: functional, cell-based; conditions: Homo sapiens;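 note: growth inhibition of the MN-60 cell line, determined with a cell viability assay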
Description: SANGER: Inhibition of human MN-60 cell growth in a cell viability assay.

RPMI-8866 = assay type: functional, cell-based; conditions: Homo sapiens
Description: SANGER: Inhibition of human RPMI-8866 cell growth in a cell viability assay.

TK-10 = assay type: functional, cell-based, Homo sapiens; conditions: Homo sapiens, TK-10;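 note: growth inhibition of TK-10 cells, read out in a cell viability assay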
Description: SANGER: Inhibition of human TK10 cell growth in a cell viability assay.

NCI-H810 = assay type: functional, cell-based, Homo sapiens; conditions: Homo sapiens, NCI-H810;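 note: IC50 reflects inhibition of cancer cell line growth, read out with a cell viability assay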
Description: SANGER: Inhibition of human NCI-H810 cell growth in a cell viability assay.

KP-4 = assay type: functional, cell-based, Homo sapiens; conditions: Homo sapiens, KP-4; read-out: IC50;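 note: human KP-4 cells, with growth inhibition read out through a cell viability assay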
Description: SANGER: Inhibition of human KP-4 cell growth in a cell viability assay.

VMRC-RCZ = assay type: functional, cell-based; conditions: Homo sapiens;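 note: growth inhibition measured with a cell viability assay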
Description: SANGER: Inhibition of human VMRC-RCZ cell growth in a cell viability assay.

CAS-1 = assay type: functional, cell-based, Homo sapiens; conditions: Homo sapiens, CAS-1;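 note: growth inhibition of CAS-1 cells, measured with a cell viability assay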
Description: SANGER: Inhibition of human CAS-1 cell growth in a cell viability assay.

GOTO = assay type: functional, cell-based, Homo sapiens; conditions: Homo sapiens, GOTO;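 note: growth inhibition of GOTO cells, read out by a cell viability assay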
Description: SANGER: Inhibition of human GOTO cell growth in a cell viability assay.

COLO-678 = assay type: functional, cell-based, Homo sapiens; conditions: Homo sapiens, COLO-678
Description: SANGER: Inhibition of human COLO-678 cell growth in a cell viability assay.

IST-SL1 = assay type: functional, cell-based, Homo sapiens; conditions: Homo sapiens, IST-SL1;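 note: growth inhibition of human IST-SL1 cells, read out with a cell viability assay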
Description: SANGER: Inhibition of human IST-SL1 cell growth in a cell viability assay.

LoVo = assay type: functional, cell-based; conditions: Homo sapiens;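 note: growth inhibition of human LoVo cells, read out with a cell viability assay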
Description: SANGER: Inhibition of human LoVo cell growth in a cell viability assay.

IGROV-1 = assay type: functional, cell-based, Homo sapiens; conditions: Homo sapiens, IGROV-1;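 note: reduction of IGROV-1 cell growth, read out with a viability assay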
Description: SANGER: Inhibition of human IGROV-1 cell growth in a cell viability assay.

AGS = assay type: functional, cell-based, Homo sapiens; conditions: Homo sapiens, AGS;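 note: growth inhibition of AGS cells, determined with a cell viability assay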
Description: SANGER: Inhibition of human AGS cell growth in a cell viability assay.

LU-134-A = assay type: functional, cell-based; conditions: Homo sapiens
Description: SANGER: Inhibition of human LU-134-A cell growth in a cell viability assay.

SCC-9 = assay type: functional, cell-based, Homo sapiens; conditions: Homo sapiens, SCC-9;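 note: Read-out is a cell viability assay, with values giving inhibition of cell growth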
Description: SANGER: Inhibition of human SCC-9 cell growth in a cell viability assay.

LOX IMVI = assay type: functional, cell-based; conditions: Homo sapiens
Description: SANGER: Inhibition of human LOXIMVI cell growth in a cell viability assay.

HGC-27 = assay type: functional, cell-based, Homo sapiens; conditions: Homo sapiens, HGC-27;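 note: growth inhibition of human HGC-27 cells, read out in a cell viability assay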
Description: SANGER: Inhibition of human HGC-27 cell growth in a cell viability assay.

MHH-PREB-1 = assay type: functional, cell-based; conditions: Homo sapiens;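 note: cell viability assay measuring inhibition of proliferation of human MHH-PREB-1 cells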
Description: SANGER: Inhibition of human MHH-PREB-1 cell growth in a cell viability assay.

NCI-H1648 = assay type: functional, cell-based, Homo sapiens; conditions: Homo sapiens, NCI-H1648;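 note: cell viability assay measuring inhibition of NCI-H1648 cell growth, from the Sanger screening data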
Description: SANGER: Inhibition of human NCI-H1648 cell growth in a cell viability assay.

MCF7 = assay type: functional, cell-based, Homo sapiens; conditions: Homo sapiens, MCF7;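 note: growth inhibition of human MCF7 cells, read out with a cell viability assay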
Description: SANGER: Inhibition of human MCF7 cell growth in a cell viability assay.

A704 = assay type: functional, cell-based, Homo sapiens; conditions: Homo sapiens, A704;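 note: growth inhibition of human A704 cells, read out with a cell viability assay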
Description: SANGER: Inhibition of human A704 cell growth in a cell viability assay.

NCI-H1770 = assay type: functional, cell-based; conditions: Homo sapiens;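 note: growth inhibition of NCI-H1770 cells determined with a viability readout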
Description: SANGER: Inhibition of human NCI-H1770 cell growth in a cell viability assay.

CC(=O)O[C@@H]1[C@@H](OC(C)=O)[C@@H](O)[C@H](Oc2c(-c3ccc(O)cc3)oc3cc(O)cc(O)c3c2=O)O[C@H]1C
IC50 (SK-NEP-1): > 10 µM
IC50 (KLE): > 10 µM
IC50 (NCI-H520): > 10 µM
IC50 (SNU-5): > 10 µM
IC50 (EFO-27): > 10 µM
IC50 (HCC1569): > 10 µM
IC50 (MS-1): > 10 µM
IC50 (DK-MG): > 10 µM
IC50 (BEN): > 10 µM
IC50 (COLO-800): > 10 µM
IC50 (SNB-75): > 10 µM
IC50 (D-336MG): > 10 µM
IC50 (HAL-01): > 10 µM
IC50 (ALL-PO): > 10 µM
IC50 (U-266): > 10 µM
IC50 (KARPAS-45): > 10 µM
IC50 (NCI-H596): > 10 µM
IC50 (NCI-H2228): > 10 µM
IC50 (RO82-W-1): > 10 µM
IC50 (OVCAR-3): > 10 µM
IC50 (OE33): > 10 µM
IC50 (SN12C): > 10 µM
IC50 (UO-31): > 10 µM
IC50 (LB771-HNC): > 10 µM
IC50 (HCT-116): > 10 µM
IC50 (K562): > 10 µM
IC50 (NY): > 10 µM
IC50 (CAL-120): > 10 µM
IC50 (CAL-39): > 10 µM
IC50 (NTERA-2-cl-D1): > 10 µM
IC50 (IGR-1): > 10 µM
IC50 (MN-60): > 10 µM
IC50 (RPMI-8866): > 10 µM
IC50 (TK-10): > 10 µM
IC50 (NCI-H810): > 10 µM
IC50 (KP-4): > 10 µM
IC50 (VMRC-RCZ): > 10 µM
IC50 (CAS-1): > 10 µM
IC50 (GOTO): > 10 µM
IC50 (COLO-678): > 10 µM
IC50 (IST-SL1): > 10 µM
IC50 (LoVo): > 10 µM
IC50 (IGROV-1): > 10 µM
IC50 (AGS): > 10 µM
IC50 (LU-134-A): > 10 µM
IC50 (SCC-9): > 10 µM
IC50 (LOX IMVI): > 10 µM
IC50 (HGC-27): > 10 µM
IC50 (MHH-PREB-1): > 10 µM
IC50 (NCI-H1648): > 10 µM
IC50 (MCF7): > 10 µM
IC50 (A704): > 10 µM
IC50 (NCI-H1770): > 10 µM

O=c1cc(-c2cccc3c2Sc2ccccc2S3)oc(N2CCOCC2)c1 [KU-55933]
IC50 (SK-NEP-1): > 10 µM
IC50 (KLE): > 10 µM
IC50 (NCI-H520): > 10 µM
IC50 (EFO-27): > 10 µM
IC50 (HCC1569): > 10 µM
IC50 (MS-1): > 10 µM
IC50 (DK-MG): > 10 µM
IC50 (BEN): > 10 µM
IC50 (COLO-800): > 10 µM
IC50 (SNB-75): > 10 µM
IC50 (D-336MG): > 10 µM
IC50 (HAL-01): > 10 µM
IC50 (ALL-PO): > 10 µM
IC50 (U-266): > 10 µM
IC50 (NCI-H596): > 10 µM
IC50 (NCI-H2228): > 10 µM
IC50 (RO82-W-1): > 10 µM
IC50 (OVCAR-3): > 10 µM
IC50 (OE33): > 10 µM
IC50 (SN12C): > 10 µM
IC50 (UO-31): > 10 µM
IC50 (LB771-HNC): > 10 µM
IC50 (HCT-116): > 10 µM
IC50 (K562): > 10 µM
IC50 (NY): > 10 µM
IC50 (CAL-120): > 10 µM
IC50 (CAL-39): > 10 µM
IC50 (NTERA-2-cl-D1): > 10 µM
IC50 (IGR-1): > 10 µM
IC50 (MN-60): > 10 µM
IC50 (RPMI-8866): > 10 µM
IC50 (TK-10): > 10 µM
IC50 (NCI-H810): > 10 µM
IC50 (KP-4): > 10 µM
IC50 (VMRC-RCZ): > 10 µM
IC50 (CAS-1): > 10 µM
IC50 (GOTO): > 10 µM
IC50 (COLO-678): > 10 µM
IC50 (IST-SL1): > 10 µM
IC50 (LoVo): 6.93 µM
IC50 (IGROV-1): > 10 µM
IC50 (AGS): > 10 µM
IC50 (LU-134-A): > 10 µM
IC50 (SCC-9): > 10 µM
IC50 (LOX IMVI): > 10 µM
IC50 (HGC-27): > 10 µM
IC50 (MHH-PREB-1): > 10 µM
IC50 (NCI-H1648): > 10 µM
IC50 (MCF7): > 10 µM
IC50 (A704): > 10 µM
IC50 (NCI-H1770): > 10 µM
